Assay results taken from ChEMBL document CHEMBL3611982, “Lowering the pKa of a bisimidazoline lead with halogen atoms results in improved activity and selectivity against Trypanosoma brucei in vitro” (Eur J Med Chem, 2015).
Calls of active or inactive are those of the source. The rule behind the calls is not given here.

Tests used:
[1] = system: Trypanosoma brucei brucei; test: Trypanocidal activity against wild type bloodstream form of Trypanosoma brucei brucei s427 trypomastigotes after 70 hrs by Alamar Blue assay; format: functional, organism-based; settings: s427, 70 h
[2] = system: Trypanosoma brucei brucei; test: Trypanocidal activity against diminazene/pentamidine/melaminophenyl arsenicals-resistant bloodstream form of Trypanosoma brucei brucei B48 trypomastigotes after 70 hrs by Alamar Blue assay; format: functional, organism-based; settings: B48, 70 h
[3] = system: Trypanosoma brucei brucei; test: Resistant factor, ratio of EC50 for diminazene/pentamidine/melaminophenyl arsenicals-resistant Trypanosoma brucei brucei B48 to EC50 for wild type bloodstream form of Trypanosoma brucei brucei s427 trypomastigotes; format: functional
[4] = Cytotoxicity against HEK293T cells after 30 hrs by Alamar Blue assay; format: cell-based, HEK-293T; settings: human
[5] = Selectivity index, ratio of CC50 for HEK293T cells to EC50 for wild type bloodstream form of Trypanosoma brucei s427 trypomastigotes; format: toxicity, cell-based, HEK-293T; settings: human, read-out: Ratio CC50/EC50
[6] = system: Trypanosoma brucei brucei; test: Trypanocidal activity against Trypanosoma brucei brucei s427 at >5 fold EC50 measured within 6 hrs by propidium iodide staining-based fluorimetric analysis; format: functional, organism-based
[7] = system: Trypanosoma brucei brucei; test: Trypanocidal activity against Trypanosoma brucei brucei s427 measured within 6 hrs by propidium iodide staining-based fluorimetric analysis; format: functional, organism-based
[8] = system: Trypanosoma brucei brucei; test: Trypanocidal activity against Trypanosoma brucei brucei s427 at 5 uM measured over 1 hr by propidium iodide staining-based fluorimetric analysis; format: functional, organism-based
[9] = system: Trypanosoma brucei brucei; test: Trypanocidal activity against Trypanosoma brucei brucei s427 at 2.5 uM measured over 2 hrs by propidium iodide staining-based fluorimetric analysis; format: functional, organism-based

Row | SMILES | EC50 [1] | EC50 [2] | Ratio EC50 [3] | CC50 at 30 h [4] | selectivity ratio [5] | Activity [6] | Activity [7] | Activity [8] | Activity [9]
1 | O=C(Nc1ccc(N=C2NCCN2)cn1)c1ccc(N=C2NCCN2)cc1 | 1040 nM | 3230 nM | 3.1 | > 200000 nM | > 190 |  |  |  | 
2 | O=C(Nc1ccc(NC2=NCCN2)cc1)c1ccc(NC2=NCCN2)cc1 | 830 nM | 870 nM | 1.1 | > 200000 nM | > 240 | Active | Dose-dependent effect |  | 
3 | O=C(Nc1ccc(N=C2NCCN2)cc1Cl)c1ccc(N=C2NCCN2)cc1 | 4220 nM | 4350 nM | 1 | > 200000 nM | > 45 |  |  |  | 
4 | N=C(N)c1ccc(OCCCCCOc2ccc(C(=N)N)cc2)cc1 [PENTAMIDINE] | 0.11 nM | 550 nM | 3349 |  |  |  |  |  | 
5 | O=C(Nc1ccc(N=C2NCCN2)cc1)c1ccc(N=C2NCCN2)c(Cl)c1 | 970 nM | 830 nM | 0.9 | > 200000 nM | > 200 |  |  |  | 
6 | O=C(Nc1ccc(N=C2NCCN2)c(Cl)c1)c1ccc(N=C2NCCN2)cc1 | 220 nM | 360 nM | 1.7 | > 200000 nM | > 900 |  |  | Active | 
7 | O=C(Nc1ccc(N=C2NCCN2)cc1)c1ccc(N=C2NCCN2)cc1Cl | 1320 nM | 2440 nM | 1.8 | > 200000 nM | > 150 |  |  |  | 
8 | O=C(Nc1ccc(N=C2NCCN2)cc1)c1ccc(N=C2NCCN2)c(F)c1 | 530 nM | 690 nM | 1.3 | > 200000 nM | > 370 |  |  |  | 
9 | O=C(Nc1ccc(N=C2NCCN2)c(F)c1)c1ccc(N=C2NCCN2)cc1 | 580 nM | 790 nM | 1.4 | > 200000 nM | > 340 |  |  |  | 
10 | O=C(Nc1ccc(N=C2NCCN2)cc1)c1ccc(N=C2NCCN2)cc1F | 470 nM | 650 nM | 1.4 | > 200000 nM | > 420 |  |  | Active | Active
11 | O=C(Nc1ccc(N=C2NCCN2)cc1F)c1ccc(N=C2NCCN2)cc1 | 1580 nM | 2160 nM | 1.4 | > 200000 nM | > 120 |  |  |  | 
12 | N=C(N)c1ccc(/N=N/Nc2ccc(C(=N)N)cc2)cc1 [DIMINAZENE] | 12 nM | 780 nM | 42 |  |  |  |  |  | 
